Reference: US9073876B2, “Flap modulators” (JANSSEN PHARMACEUTICA NV, priority 2013, dated 2015)
Structures can show the parent of a compound that is named as a salt.

biological target: human FLAP (Homo sapiens (Human), UniProt P20292); test: FLAP binding assay (HTRF); conditions: human FLAP-containing membranes, HTRF format; average of two assay plates, duplicates; read-out: FLAP Binding wild type HTRF Ki
Description: The ability of the compounds of the present invention to treat a FLAP-mediated disease and/or disorder, or associated symptoms or complications thereof, was determined using the following procedures. Binding assay data represent the average value obtained from two different assay plates, with samples run in duplicate on each plate. Human whole blood assay data represent a single replicate on an assay plate using whole blood from at least one healthy donor.
Data are expressed as a HTRF ratio.

human FLAP, sequence (P20292 whole entry): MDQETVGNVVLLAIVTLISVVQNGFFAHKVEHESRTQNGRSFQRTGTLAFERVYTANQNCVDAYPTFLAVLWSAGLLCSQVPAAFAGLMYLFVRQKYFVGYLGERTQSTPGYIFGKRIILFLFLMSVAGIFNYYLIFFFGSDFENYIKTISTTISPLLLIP

Row | Compound | Ki [nM]
1 | 5-(4-Cyclobutyl-2-fluoro-3- methoxyphenyl)pyridin-2-amine hydrochloride salt [Example 178] | 354
2 | Nc1cnc(-c2ccc(C3CCC3)c(OCC(O)CN3CCC(O)C3)c2F)cn1 (mixture of isomers) [Example 308, diastereomeric mixture 1-{3-[3-(5-Aminopyrazin-2-yl)-6-cyclobutyl-2-fluorophenoxy]-2-hydroxypropyl}pyrrolidin-3-ol] | > 10000
3 | Nc1cnc(-c2ccc(C3CCC3)c(OCC(O)Cn3ccccc3=O)c2F)cn1 (racemic) [Example 51, racemic 1-(3-(3-(5-Aminopyrazin-2-yl)-6-cyclobutyl-2-fluorophenoxy)-2-hydroxypropyl)pyridin-2(1H)-one] | 324
4 | Nc1cnc(-c2ccc(C3CCC3)c(OCC(O)CO)c2F)cn1 (racemic) [Example 254, 3-(3-(5-Aminopyrazin-2-yl)-6-cyclobutyl-2-fluorophenoxy)propane-1,2-diol] | 992
5 | Nc1cnc(-c2ccc(C3CCC3)c(OCC3CCCNC3)c2F)cn1 (racemic) [Example 299, racemic 5-[4-Cyclobutyl-2-fluoro-3-(piperidin-3-ylmethoxy)phenyl]pyrazin-2-amine] | > 10000
6 | Nc1cnc(-c2ccc(C3CCC3)c(OCC3CCNC3)c2F)cn1 (racemic) [Example 300, racemic 5-[4-Cyclobutyl-2-fluoro-3-(pyrrolidin-3-ylmethoxy)phenyl]pyrazin-2-amine] | > 10000
7 | Nc1cnc(-c2ccc(C3CCC3)c(OCC3CCCN3)c2F)cn1 (racemic) [Example 302, racemic 5-[4-Cyclobutyl-2-fluoro-3-(pyrrolidin-2-ylmethoxy)phenyl]pyrazin-2-amine] | > 10000
8 | Nc1cnc(-c2ccc(C3CCC3)c(OCC(O)CN3CCCCC3)c2F)cn1 (racemic) [Example 303, racemic 5 1-[3-(5-Aminopyrazin-2-yl)-6-cyclobutyl-2-fluorophenoxy]-3-piperidin-1-ylpropan-2-ol] | > 10000
9 | CNCC(O)COc1c(C2CCC2)ccc(-c2cnc(N)cn2)c1F (racemic) [Example 304, racemic 1-[3-(5-Aminopyrazin-2-yl)-6-cyclobutyl-2-fluorophenoxy]-3-(methylamino)propan-2-ol] | > 10000
10 | CC(C)NCC(O)COc1c(C2CCC2)ccc(-c2cnc(N)cn2)c1F (racemic) [Example 305, racemic 1-[3-(5-Aminopyrazin-2-yl)-6-cyclobutyl-2-fluorophenoxy]-3-[(1-methylethyl)amino]propan-2-ol] | > 10000
11 | Nc1cnc(-c2ccc(C3CCC3)c(OCC(O)CN3CCCC3)c2F)cn1 (racemic) [Example 306, racemic 1-[3-(5-Aminopyrazin-2-yl)-6-cyclobutyl-2-fluorophenoxy]-3-pyrrolidin-1-ylpropan-2-ol] | > 10000
12 | CN(C)CC(O)COc1c(C2CCC2)ccc(-c2cnc(N)cn2)c1F (racemic) [Example 307, racemic 1-[3-(5-Aminopyrazin-2-yl)-6-cyclobutyl-2-fluorophenoxy]-3-(dimethylamino)propan-2-ol] | > 10000
13 | Nc1cnc(-c2ccc(C3CCC3)c(OCC(O)CN3CCNCC3)c2F)cn1 (racemic) [Example 309, racemic 1-[3-(5-Aminopyrazin-2-yl)-6-cyclobutyl-2-fluorophenoxy]-3-piperazin-1-ylpropan-2-ol] | > 10000
14 | Nc1cnc(-c2ccc(C3CCC3)c(OCC(O)Cn3cccnc3=O)c2F)cn1 (racemic) [Example 310, racemic 1-{3-[3-(5-Aminopyrazin-2-yl)-6-cyclobutyl-2-fluorophenoxy]-2-hydroxypropyl}pyrimidin-2(1H)-one] | > 10000
15 | Nc1cnc(-c2ccc(C3CCC3)c(OCC(O)CN3CCNC3=O)c2F)cn1 (racemic) [Example 312, racemic 1-{3-[3-(5-Aminopyrazin-2-yl)-6-cyclobutyl-2-fluorophenoxy]-2-hydroxypropyl}imidazolidin-2-one] | 974
16 | Nc1cnc(-c2ccc(C3CCC3)c(OCc3cccc(OC(F)(F)F)c3)c2F)cn1 [Example 9, 5-(4-Cyclobutyl-2-fluoro-3-{[3-(trifluoromethoxy)benzyl]oxy}phenyl)-pyrazin-2-amine] | 808
17 | Nc1cnc(-c2ccc(C3CCC3)c(OCc3ccc(OC(F)(F)F)cc3)c2F)cn1 [Example 10, 5-(4-Cyclobutyl-2-fluoro-3-{[4-(trifluoromethoxy)benzyl]oxy}phenyl)-pyrazin-2-amine] | 866
18 | Nc1cnc(-c2ccc(C3CCC3)c(OCc3ccc(F)cc3)c2F)cn1 [Example 28, 5-{4-Cyclobutyl-2-fluoro-3-[(4-fluorobenzyl)oxy]phenyl}pyrazin-2-amine] | 304
19 | Nc1cnc(-c2ccc(C3CCC3)c(OCc3ccccc3F)c2F)cn1 [Example 30, 5-{4-Cyclobutyl-2-fluoro-3-[(2-fluorobenzyl)oxy]phenyl}pyrazin-2-amine] | 354
20 | Nc1cnc(-c2ccc(C3CCC3)c(OCc3cccc(F)c3F)c2F)cn1 [Example 32, 5-{4-Cyclobutyl-3-[(2,3-difluorobenzyl)oxy]-2-fluorophenyl}pyrazin-2-amine] | 354

Row | Compound | Ki [nM]
21 | Nc1cnc(-c2ccc(C3CCC3)c(OCc3ccc(Cl)cc3Cl)c2F)cn1 [Example 40, 5-{4-Cyclobutyl-3-[(2,4-dichlorobenzyl)oxy]-2-fluorophenyl}pyrazin-2-amine] | 612
22 | Nc1cnc(-c2ccc(C3CCC3)c(OCc3cccc(C(F)(F)F)c3Cl)c2F)cn1 [Example 42, 5-(3-{[2-Chloro-3-(trifluoromethyl)benzyl]oxy}-4-cyclobutyl-2-fluorophenyl)pyrazin-2-amine] | 2000
23 | Nc1cnc(-c2ccc(C3CCC3)c(OCc3cc(Cl)ccc3C(F)(F)F)c2F)cn1 [Example 43, 5-(3-{[5-Chloro-2-(trifluoromethyl)benzyl]oxy}-4-cyclobutyl-2-fluorophenyl)pyrazin-2-amine] | 430
24 | Nc1cnc(-c2ccc(C3CCC3)c(OCc3ccc(F)cc3C(F)(F)F)c2F)cn1 [Example 44, 5-(4-Cyclobutyl-2-fluoro-3-{[4-fluoro-2-(trifluoro-methyl)benzyl]oxy}phenyl)pyrazin-2-amine] | 1500
25 | Nc1cnc(-c2ccc(C3CCC3)c(OCC(=O)O)c2F)cn1 [Example 50, [3-(5-Aminopyrazin-2-yl)-6-cyclobutyl-2-fluorophenoxy]acetic acid] | 1500
26 | Nc1cnc(-c2ccc(C3CCC3)c(OCC3CCCCC3)c2F)cn1 [Example 71, 5-[4-Cyclobutyl-3-(cyclohexylmethoxy)-2-fluorophenyl]pyrazin-2-amine] | 620
27 | Cc1noc(COc2c(C3CCC3)ccc(-c3cnc(N)cn3)c2F)n1 [Example 75, 5-{4-Cyclobutyl-2-fluoro-3-[(3-methyl-1,2,4-oxadiazol-5-yl)methoxy]phenyl}pyrazin-2-amine] | 370
28 | Nc1cnc(-c2ccc(C3CCC3)c(OCc3ccccc3S(F)(F)(F)(F)F)c2F)cn1 [Example 81, 5-(4-Cyclobutyl-2-fluoro-3-{[2-(pentafluoro-lambda~6~- sulfanyl)benzyl]oxy}phenyl)pyrazin-2-amine] | 394
29 | Nc1cnc(-c2ccc(C3CCC3)c(OCC3CCC3)c2F)cn1 [Example 82, 5-[4-Cyclobutyl-3-(cyclobutylmethoxy)-2-fluorophenyl]pyrazin-2-amine] | 304
30 | Nc1cnc(-c2ccc(C3CCC3)c(Oc3cnc(C(F)(F)F)cn3)c2F)cn1 [Example 105, 5-(4-Cyclobutyl-2-fluoro-3-{[5-(trifluoromethyl)pyrazin-2-yl]oxy}phenyl)pyrazin-2-amine] | 250
31 | CS(=O)(=O)c1ccccc1Oc1c(C2CCC2)ccc(-c2cnc(N)cn2)c1F [Example 117, 5-{4-Cyclobutyl-2-fluoro-3-[2-(methylsulfonyl)phenoxy]phenyl}pyrazin-2-amine] | 2500
32 | Nc1cnc(-c2ccc(C3CCC3)c(Oc3ccc(C(F)(F)F)c(C(F)(F)F)c3)c2F)cn1 [Example 120, 5-{3-[3,4-Bis(trifluoromethyl)phenoxy]-4-cyclobutyl-2-fluorophenyl}pyrazin-2-amine] | 304
33 | Nc1cnc(-c2ccc(C3CCC3)c(Oc3ncccc3C(F)(F)F)c2F)cn1 [Example 121, 5-(4-Cyclobutyl-2-fluoro-3-{[3-(trifluoromethyl)pyridin-2-yl]oxy}phenyl)pyrazin-2-amine] | 250
34 | Nc1cnc(-c2ccc(C3CCC3)c(Oc3cc(C(F)(F)F)ncn3)c2F)cn1 [Example 125, 5-(4-Cyclobutyl-2-fluoro-3-{[6-(trifluoromethyl)pyrimidin-4-yl]oxy}phenyl)pyrazin-2-amine] | 250
35 | CS(=O)(=O)c1ccc(Oc2c(C3CCC3)ccc(-c3cnc(N)cn3)c2F)c(C(F)(F)F)c1 [Example 127, 5-(4-cyclobutyl-2-fluoro-3-(4-(methylsulfonyl)-2-(trifluoro-methyl)phenoxy)phenyl)pyrazin-2-amine] | 2200
36 | Nc1cnc(-c2ccc(C3CCC3)c(Oc3ccc(C(F)(F)F)nc3)c2F)cn1 [Example 128, 5-(4-Cyclobutyl-2-fluoro-3-{[6-(trifluoromethyl)pyridin-3-yl]oxy}phenyl)pyrazin-2-amine] | 297
37 | Cn1nc(Oc2c(C3CCC3)ccc(-c3cnc(N)cn3)c2F)c(C#N)c1C(F)(F)F [Example 148, 3-[3-(5-Aminopyrazin-2-yl)-6-cyclobutyl-2-fluorophenoxy]-1-methyl-5-(trifluoromethyl)-1H-pyrazole-4-carbonitrile] | 101
38 | CN(C)CCNc1nccc(Oc2c(C3CCC3)ccc(-c3cnc(N)cn3)c2F)n1 [Example 156, N′-{4-[3-(5-Aminopyrazin-2-yl)-6-cyclobutyl-2-fluorophenoxy]pyrimidin-2-yl}-N,N-dimethylethane-1,2-diamine hydrochloride] | 2240
39 | N#Cc1nc(N)cnc1-c1ccc(C2CCC2)c(O)c1F [Example 173, 6-amino-3-(4-cyclobutyl-2-fluoro-3-hydroxyphenyl)pyrazine-2-carbonitrile] | 682
